Data on 35 compounds can be found in ChEMBL document CHEMBL1201862, “PubChem BioAssay data set” (2004).

Active and inactive are the calls of the source. Where only a bound is given, the exact number is not on record here.

Experiment [1] addresses T1, DNA repair protein RAD52 homolog (Homo sapiens, UniProt P43351).
T1 sequence (P43351 whole entry): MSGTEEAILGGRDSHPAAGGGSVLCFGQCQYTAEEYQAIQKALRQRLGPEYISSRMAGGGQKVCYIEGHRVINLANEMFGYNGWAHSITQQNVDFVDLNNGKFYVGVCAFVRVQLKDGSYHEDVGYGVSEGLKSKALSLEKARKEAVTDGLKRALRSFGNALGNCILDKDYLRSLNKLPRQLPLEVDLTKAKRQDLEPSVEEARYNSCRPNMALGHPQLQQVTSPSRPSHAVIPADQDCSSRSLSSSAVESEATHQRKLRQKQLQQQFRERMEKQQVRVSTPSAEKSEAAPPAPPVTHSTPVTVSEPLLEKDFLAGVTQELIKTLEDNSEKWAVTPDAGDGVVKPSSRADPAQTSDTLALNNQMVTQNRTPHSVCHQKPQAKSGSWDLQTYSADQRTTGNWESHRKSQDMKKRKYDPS
It counts as functional, biochemical.

The nature of experiment [2]: HIV-1 AD8 envelope cell-cell fusion blockers – cherry-pick, dose response (AID 652062).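 Note: luciferase signal from cell-cell fusion driven by HIV-1 clade B AD8 Env; potency is for inhibitors of fusion seen as a drop in luminescence.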 It counts as functional, cell-based.
A short description of experiment [3]: blockers of HIV-1 ZM109 envelope-driven cell-cell fusion – HeLa effector, CEM target cells, luciferase, cherry-pick, dose response (AID 652058).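 Note: luciferase signal from HIV-1 Env mediated cell-cell fusion of effector and target cells.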 It counts as functional, cell-based.
The nature of experiment [4]: off-target signal loss in HeLa-CEM21 co-culture – HeLa F-luc CTL cells, cherry-picked, counter-screen for HIV-1 Env fusion inhibitor project, dose response (AID 652040).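 Note: potency for signal decrease marking cytotoxic or nonspecific inhibition.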 It counts as functional, cell-based.
A short description of experiment [5]: blockers of HIV-1 envelope-mediated cell-cell fusion – cherry-pick, dose response (AID 652057). It counts as functional, cell-based.
Experiment [6] can be described thus: A cytotoxicity screen of small molecule inhibitors of the PhoP region in Salmonella typhi identified in the primary screen. [Related pubchem assays: 1850, 1864, 1985 ]. It counts as functional.
The nature of another experiment: cells. It counts as functional.
In experiment [7] the target is T2, Histone-lysine N-methyltransferase NSD2 (Homo sapiens, UniProt O96028).
T2 sequence (O96028 whole entry): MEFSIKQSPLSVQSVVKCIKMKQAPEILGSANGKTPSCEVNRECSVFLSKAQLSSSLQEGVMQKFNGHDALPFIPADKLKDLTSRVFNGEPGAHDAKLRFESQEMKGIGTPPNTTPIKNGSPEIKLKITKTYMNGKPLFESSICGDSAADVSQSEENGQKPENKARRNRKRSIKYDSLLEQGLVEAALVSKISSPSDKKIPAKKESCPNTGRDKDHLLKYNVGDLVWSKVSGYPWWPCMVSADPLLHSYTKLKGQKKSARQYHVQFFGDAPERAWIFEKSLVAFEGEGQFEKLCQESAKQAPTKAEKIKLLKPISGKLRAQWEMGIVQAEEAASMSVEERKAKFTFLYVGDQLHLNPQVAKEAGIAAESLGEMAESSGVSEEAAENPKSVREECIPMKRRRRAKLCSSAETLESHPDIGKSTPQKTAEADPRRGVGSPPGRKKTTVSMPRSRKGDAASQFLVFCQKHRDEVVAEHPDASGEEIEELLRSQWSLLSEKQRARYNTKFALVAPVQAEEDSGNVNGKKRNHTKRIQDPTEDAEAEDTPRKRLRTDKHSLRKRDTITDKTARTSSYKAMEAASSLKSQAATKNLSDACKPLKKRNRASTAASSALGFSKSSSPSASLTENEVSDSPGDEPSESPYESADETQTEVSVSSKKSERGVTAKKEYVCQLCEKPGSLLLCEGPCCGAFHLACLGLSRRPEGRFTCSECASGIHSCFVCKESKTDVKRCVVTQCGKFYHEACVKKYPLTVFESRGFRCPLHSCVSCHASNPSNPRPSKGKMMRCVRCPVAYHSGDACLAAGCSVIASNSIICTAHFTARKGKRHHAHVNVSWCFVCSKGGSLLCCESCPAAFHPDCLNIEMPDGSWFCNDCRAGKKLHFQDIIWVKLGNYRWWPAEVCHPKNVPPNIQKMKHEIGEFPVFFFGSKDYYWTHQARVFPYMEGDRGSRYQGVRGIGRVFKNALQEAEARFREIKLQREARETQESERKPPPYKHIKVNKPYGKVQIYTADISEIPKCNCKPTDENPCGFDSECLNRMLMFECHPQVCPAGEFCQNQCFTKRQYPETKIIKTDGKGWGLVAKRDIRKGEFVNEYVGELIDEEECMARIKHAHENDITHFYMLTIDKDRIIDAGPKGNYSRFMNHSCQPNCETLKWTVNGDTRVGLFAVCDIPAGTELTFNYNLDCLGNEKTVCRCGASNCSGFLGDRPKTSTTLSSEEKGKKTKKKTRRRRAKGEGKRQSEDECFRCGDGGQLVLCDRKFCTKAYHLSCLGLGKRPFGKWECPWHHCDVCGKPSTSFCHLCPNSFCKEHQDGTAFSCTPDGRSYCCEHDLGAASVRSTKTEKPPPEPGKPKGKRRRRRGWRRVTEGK
It counts as biochemical.

Experiment [8] concerns the target Glyceraldehyde-3-phosphate dehydrogenase (Homo sapiens, UniProt P04406).
Experiment [9] concerns the target Glucose-6-phosphate 1-dehydrogenase (Homo sapiens, UniProt P11413). The experiment can be described thus: inhibition of Homo sapiens G6PD, dose series – biochemical, fluorescence, selectivity assay for P. falciparum G6PD inhibitor project, dose response (AID 504792). It counts as functional.
The next experiment has as its target Paired box protein Pax-8 (Homo sapiens, UniProt Q06710). The experiment can be described thus: PAX8 transcriptional activity inhibition in RMG-I – RMG-I cells, luciferase, cherry-pick, dose response (AID 687027).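 Note: luciferase reporter driven by Pax8 target thyroperoxidase promoter measured by SteadyGlo luminescence.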 It counts as functional, cell-based.
Experiment [10] can be described thus: THP-1 cell cytotoxicity, dose response, cytotoxicity control for non-replicating M. tuberculosis project (AID 489025). It counts as functional.
Another experiment deals with Nonstructural protein 1 (Influenza A virus, UniProt Q194T2). It counts as functional, Influenza A virus (A/California/07/2009(H1N1)).
Chain of Nonstructural protein 1 (Q194T2 whole entry): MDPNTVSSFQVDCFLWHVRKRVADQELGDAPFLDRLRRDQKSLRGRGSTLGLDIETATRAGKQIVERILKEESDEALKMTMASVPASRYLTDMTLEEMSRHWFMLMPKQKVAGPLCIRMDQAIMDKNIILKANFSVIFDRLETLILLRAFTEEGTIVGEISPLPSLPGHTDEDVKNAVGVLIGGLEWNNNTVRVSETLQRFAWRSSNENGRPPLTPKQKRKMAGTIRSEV
Experiment [11] is described as follows: NIH-3T3 fibroblast cytotoxicity, dose response, cytotoxicity control, cell-based, fluorescence, Alamar Blue, secondary assay (AID 2327).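 Note: NIH-3T3 mouse fibroblasts cultured with fluconazole at 8 µg/mL.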 It counts as functional.
A short description of experiment [12]: fluconazole-exposed Candida albicans growth modulators – fluorescence, retest, confirmation (AID 2467). It counts as functional, cell-based.
Experiment [13] deals with T3, Ubiquitin-conjugating enzyme E2 N (Homo sapiens, UniProt P61088).
T3 sequence (P61088 whole entry): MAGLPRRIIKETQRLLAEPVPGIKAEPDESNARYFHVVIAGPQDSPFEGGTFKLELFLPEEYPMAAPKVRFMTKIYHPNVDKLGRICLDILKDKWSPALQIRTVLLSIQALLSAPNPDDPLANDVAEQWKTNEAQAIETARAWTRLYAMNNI
It counts as functional.

Chain of Glucose-6-phosphate 1-dehydrogenase (P11413 whole entry): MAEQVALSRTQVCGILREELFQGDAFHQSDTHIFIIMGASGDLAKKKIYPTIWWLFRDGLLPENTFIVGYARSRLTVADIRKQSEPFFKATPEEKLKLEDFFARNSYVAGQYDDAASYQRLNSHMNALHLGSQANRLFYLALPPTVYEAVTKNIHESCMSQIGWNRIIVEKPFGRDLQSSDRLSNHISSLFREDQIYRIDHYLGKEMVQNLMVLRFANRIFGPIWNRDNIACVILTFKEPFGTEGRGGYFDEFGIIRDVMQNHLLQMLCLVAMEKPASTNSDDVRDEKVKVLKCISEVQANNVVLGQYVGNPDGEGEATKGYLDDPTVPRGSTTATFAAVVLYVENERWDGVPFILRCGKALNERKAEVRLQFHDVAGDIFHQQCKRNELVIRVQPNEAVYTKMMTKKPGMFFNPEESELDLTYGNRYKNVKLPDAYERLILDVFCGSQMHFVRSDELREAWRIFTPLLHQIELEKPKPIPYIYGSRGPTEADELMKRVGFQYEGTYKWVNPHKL
Chain of Glyceraldehyde-3-phosphate dehydrogenase (P04406 whole entry): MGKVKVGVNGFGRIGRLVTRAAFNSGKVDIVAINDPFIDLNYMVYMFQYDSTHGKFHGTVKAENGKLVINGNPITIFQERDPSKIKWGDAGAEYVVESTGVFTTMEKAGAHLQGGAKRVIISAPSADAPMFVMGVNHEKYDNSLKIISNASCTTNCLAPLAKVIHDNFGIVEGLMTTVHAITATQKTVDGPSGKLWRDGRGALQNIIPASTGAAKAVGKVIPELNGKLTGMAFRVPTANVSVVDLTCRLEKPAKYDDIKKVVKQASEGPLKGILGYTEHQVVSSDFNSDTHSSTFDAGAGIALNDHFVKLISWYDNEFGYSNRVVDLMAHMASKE
Chain of Paired box protein Pax-8 (Q06710 whole entry): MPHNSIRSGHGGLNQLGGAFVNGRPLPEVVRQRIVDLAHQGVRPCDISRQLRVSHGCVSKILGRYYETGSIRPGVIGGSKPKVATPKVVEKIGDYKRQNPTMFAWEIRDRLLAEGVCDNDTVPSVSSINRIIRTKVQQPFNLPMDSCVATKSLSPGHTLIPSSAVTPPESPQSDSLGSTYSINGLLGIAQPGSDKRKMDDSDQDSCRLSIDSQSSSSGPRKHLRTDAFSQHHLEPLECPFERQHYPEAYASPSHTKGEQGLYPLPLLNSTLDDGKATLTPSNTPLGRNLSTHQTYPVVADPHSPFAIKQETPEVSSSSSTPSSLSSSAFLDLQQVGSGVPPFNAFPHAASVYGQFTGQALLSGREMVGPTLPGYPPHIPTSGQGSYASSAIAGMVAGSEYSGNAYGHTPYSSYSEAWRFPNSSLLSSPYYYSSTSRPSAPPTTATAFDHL

As usually defined, the AC50 is the concentration giving half of the maximal activity seen. `CCOc1ccc2[nH]c3c(c2c1)CNCC3`: in experiment [1], the half-maximal activity concentration (AC50) is 26.8 µM (active). On to `O=C(CN(c1cc(C(F)(F)F)ccc1Cl)S(=O)(=O)c1ccccc1)NCc1cccnc1`, for which the concentration at half-maximal activity (AC50) is 5.21 µM (active) in experiment [2], 3.01 µM (active) in experiment [3], 3.81 µM (active) in experiment [4] and 1.98 µM (active) in experiment [5]. For orientation: EC50 means the concentration that produces a half-maximal response. Turning to `CC1CCCCN1S(=O)(=O)c1ccc(S(=O)(=O)NCCc2ccncc2)cc1` (stereo unspecified), in experiment [6], the EC50 is > 50 µM (active). For the compound `COc1ccc2c(c1)CC1c3c(cc4c(c3-2)OCO4)CC[N+]1(C)[O-]` (stereo unspecified), the AC50 in [1] was 3.38 µM (active). Regarding `CCOC(=O)COn1c(=O)c(-c2cccs2)[n+]([O-])c2ccccc21`, the half-maximal effective concentration (EC50) in experiment [6] is > 50 µM (active). What is called IC50 is the concentration needed to halve the response being measured. Consider `O=C(OCc1nnc(-c2ccccc2)o1)c1ccc(Br)o1`, for which, in the experiment “cells”, the half-inhibitory concentration (IC50) was 20.1 µM (active). As for `CCC(C)(C)NC(=O)C(c1ccc(C)cc1)N(CC1CCCO1)C(=O)c1csnn1` (stereo unspecified), the AC50 in experiment [2] is 7.81 µM (active); in experiment [3], 2.82 µM (active); in experiment [4], 6.84 µM (active); in experiment [5], 4.81 µM (active).

Turning to `CNCCCc1ccccc1`, in [7], the AC50 is > 20 µM (inactive). On to `O=C1C(Cl)=C(N2CCN(Cc3ccc4c(c3)OCO4)CC2)C(=O)N1c1cccc(C(F)(F)F)c1`, for which the IC50 in [8] was > 50 µM (inconclusive). Take `C/C(Cn1nnc([N+](=O)[O-])n1)=N\NC(=O)c1ccc(O)cc1`: the IC50 in experiment [9] was > 80 µM (inactive).

On to `O=C(CCCOc1ccccc1)OCn1nnc2ccccc2c1=O`, for which the half-maximal inhibitory concentration (IC50) in the experiment “cells” was 3.55 µM (active). Take `O=C(Nc1ccc(Cl)cn1)C1CCCN1S(=O)(=O)c1cccc2ccccc12` (stereo unspecified): the AC50 in experiment [4] is 53.6 µM (active); in experiment [5], 29.8 µM (active). Turning to `CC(=O)O[C@H]1C[C@@H]2CC[C@@H]3[C@H](CC[C@@]4(C)[C@H]3C[C@H]([N+]3(C)CCCCC3)[C@@H]4OC(C)=O)[C@@]2(C)C[C@@H]1[N+]1(C)CCCCC1` [PANCURONIUM BROMIDE], the concentration at half-maximal activity (AC50) in experiment [1] was 8.3 µM (active).

For `COc1cc(NCc2ccccc2)c2ncn(Cc3ccccc3)c2c1`, in experiment [9], the IC50 was > 80 µM (inactive).

With `CCc1ccc(NC(=O)Nc2ccncc2)cc1`, the 50% effective concentration (EC50) in experiment [6] is > 50 µM (active).

With `C#CCOCCOCCOCCNc1nc(N2CCN(C(=O)Cn3cc(CCCN=C(N)N)nn3)CC2)nc(N2CCN(C(=O)[C@H](CCCCN)n3cc(CCCC)nn3)CC2)n1`, in experiment [1], the concentration at half-maximal activity (AC50) is 34 µM (active). For the compound `O=C(C[C@H]1CC[C@H]2[C@@H](COC[C@@H](O)CN2Cc2ccc(F)cc2)O1)NCc1ccccc1Cl`, the AC50 at Paired box protein Pax-8 is 23.7 µM (active).

Usually CC50 stands for the concentration giving 50% cytotoxicity. As for `CCc1ccc(Cc2cnc(NC(=O)C3=NCCN3)s2)cc1`, in “cells”, the concentration for half-maximal inhibition (IC50) is 9.25 µM (active). For the same compound, the CC50 in experiment [10] was > 40 µM (active). Regarding `CCN1CCCC1CNC(=O)c1ccc2c(c1)NC(=O)/C(=C\c1ccccc1F)S2` (stereo unspecified), the IC50 in [9] is > 80 µM (inactive). For the same compound, the concentration at half-maximal activity (AC50) in experiment [1] is 6.33 µM (active).

For `COC(=O)[C@@]1(Cc2ccccc2)[C@H]2C(=O)N(Cc3ccccc3)C(=O)[C@H]2[C@H]2CN=C(SCc3ccc(C#N)cc3)N21`, the concentration at half-maximal activity (AC50) in [2] was 4.69 µM (active); in experiment [3] it was 3.83 µM (active); in [4], 4.57 µM (active); in experiment [5], 2.07 µM (active). Taken in the same sequence, the figures for `COc1ccc([C@@H]2[C@@H]3C(=O)N(C(C)(C)C)C(=O)[C@@H]3[C@]3(CC(C)C)C(=O)N(c4cccc(F)c4)C(=O)N23)cc1` were < 0.26 µM (active), < 0.26 µM (active), < 0.26 µM (active) and < 0.26 µM (active). As for `O=C(CN1CCN(S(=O)(=O)c2ccc(Cl)cc2)CC1)c1ccc(O)c(O)c1`, the half-maximal activity concentration (AC50) in [7] was 4.91 µM (active). With `CCN(C[C@H]1N[C@@](CC)(C(=O)OC)[C@H]2C(=O)N(Cc3ccccc3)C(=O)[C@@H]12)S(=O)(=O)c1ccc(C(F)(F)F)cc1`, the AC50 in experiment [2] is 2.16 µM (active); in experiment [3], 1.3 µM (active); in experiment [4] it was 1.79 µM (active); in experiment [5], 1.3 µM (active). As for `CCCN(CCC)CCNC(=O)c1cc2c(-c3ccccc3F)nn(C)c2s1`, the AC50 in experiment [7] is > 20 µM (inactive).

As for `COc1ccc(OC)c(CCNC(=O)CS(=O)(=O)Cc2nc(-c3ccccc3C)oc2C)c1`, the 50% effective concentration (EC50) in experiment [6] was > 50 µM (active).

For `COCc1cc(CN2CCN(C)CC2)c(O)c2ncccc12`, the IC50 at Nonstructural protein 1 was 4.15 µM (active). The EC50 in experiment [11] was > 160 µM (inactive); in experiment [12] it was > 38 µM (not active). On to `COc1ccccc1NC(=O)CSc1ccc(-c2ccccn2)nn1`, for which the IC50 at Nonstructural protein 1 is 7.99 µM (active). Consider `COc1cccc(-c2nnc(SCC(=O)O)[nH]2)c1`, for which the IC50 in [8] is > 100 µM (not active).

With `Cc1cccc(C(=O)Nc2nnc(S(=O)(=O)N3CCOCC3)s2)c1`, the IC50 in [9] was 54.4 µM (inactive). Take `CN(C)CCCN(C(=O)c1ccc(C(=O)c2ccccc2)cc1)c1nc2cc3c(cc2s1)OCO3`: the AC50 in [1] is 7.81 µM (active). Further, in [13], the IC50 is > 20 µM (inactive).

In the case of `N#CC1C(=O)Nc2cccnc21` (stereo unspecified), the AC50 in [7] was > 20 µM (inactive). In the case of `COc1cccc(NC(=O)CSc2nn3c(=O)c(C)nnc3s2)c1`, on Nonstructural protein 1, the IC50 is 11.3 µM (active). As for `CC(C)Cc1nc(N2CCOCC2)c(C#N)c2c1COC(C)(C)C2`, the half-maximal effective concentration (EC50) in [6] is > 50 µM (active). `CC1(C)Cc2c(sc3nc4n(-c5ccccc5)c(=O)c(CCC(=O)O)nn4c(=O)c23)CO1`: the IC50 in experiment [9] was 34.1 µM (inactive). As for `COc1ccccc1NC(=O)Cn1nc(-c2ccncc2)nc1SCC(=O)NC1CCCC1`, the half-maximal effective concentration (EC50) in [6] is > 50 µM (active).
